# From patent US7998940B2, “Aptamers to von Willebrand factor and their use as thrombotic disease therapeutics” (Archemix Corp., priority 2004, dated 2011)
# Like-named read-outs stand apart in the source and are kept apart here. [invdT] = inverted (3'-3') thymidine; d = 2'-deoxy (DNA); m = 2'-O-methyl
# Tests used:
# [1] = system: full length human vWF (SEQ ID NO 7); test: dot blot KD determination and extent of binding, full length human vWF; conditions: for % binding @ 100 nM vWF: extent of aptamer binding at 100 nM full length human vWF; for Kd: full length human vWF, read-out: KD;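 on all read-outs here: dot blot binding of aptamers to full length human vWF across a protein titration, incubated 30 minutes at room temperature in 1x DPBS with BSA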
# [2] = system: full length human vWF binding to lyophilized platelets; test: Full length human von Willebrand Factor platelet binding assay (FACS); type: cell-based; conditions: read-out: FACS IC50 vs human full length vWF
# In short: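 Aptamer titrations (0.1–1000 nM) pre-incubated with 5 nM full-length human vWF, then added to lyophilized platelets plus botrocetin for 15 min at 37 °C in PBS/0.5% BSA. Bound vWF detected by anti-vWF then FITC secondary antibody via flow cytometry MFI; % inhibition versus no-aptamer binding fitted for IC50.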
# [3] = not given; remark: listed apart in the source
# [4] = system: rabbit vWF domain A1 binding to lyophilized platelets; test: Rabbit von Willebrand Factor domain A1 platelet binding assay (FACS); type: cell-based; conditions: read-out: FACS IC50 vs rabbit A1 domain
# Description: Botrocetin induces the binding of the A1 domain of vWF to platelets, as well as the full length protein. It was determined by the inventors that 6-Histidine-tagged rabbit A1 domain vWF purified protein could be induced to bind to human lyophilized platelets with botrocetin. Rabbit A1 binding to platelets is measured with an anti-poly-His antibody followed by incubation with a phycoerythrin conjugated secondary antibody. The degree of binding can be quantified by flow cytometric analysis. The ability of aptamers to block the binding of rabbit A1 to human fixed platelets was correlated with decreased fluorescence signal.
# The ability of aptamers of the invention to block rabbit vWF domain A1 binding to lyophilized platelets was also assessed by flow cytometric analysis. Titrations of aptamers (zero, 0.1 nM to 1000 nM) were preincubated briefly with 4 nM of rabbit A1 vWF in FACS buffer (PBS plus 0.5% bovine serum albumin) at room temperature in a volume of 50 uL. Another 50 uL containing 5 uL of lyophilized platelets plus 1 uL of 0.1 U/uL of botrocetin in FACS buffer was added to aptamer/vWF. This reaction was allowed to proceed for 15 minutes at 37 degrees C. after which 200 uL of FACS buffer was added. Platelets were collected by a 6 minute spin at 1470 RCF and the supernatant was discarded. The pellets were resuspended in 100 uL of FACS buffer containing a 1:200 dilution of anti-Penta-HIS-biotin conjugate antibody and were incubated at room temperature for 30 minutes. After the dilution with 200 uL of FACS buffer, the platelets were spun at 1470 RCF for 6 minutes, and the supernatant was discarded. The pellets were resuspended in a 1:100 solution of anti-IgG-PE antibody and were incubated in the dark for 30 minutes at room temperature. The entire 100 uL was diluted into 200 uL of FACS buffer and analyzed immediately by flow cytometric analysis in the FACSCAN. Contaminating debris was eliminated from the analysis by drawing a gate around the population of single and aggregated platelets and collecting data from 10000 events. Median fluorescent intensity (“MedFI”) readings (which are generally equivalent to the MFI readings, described in Example 3a above, for comparative purposes) were quantified for each sample analyzed by flow cytometry. Background MedFI was subtracted from all data points. Percent inhibition was reported by calculating the percent value of binding of […] to platelets in the presence of aptamer at a given concentration relative to binding in the absence of any aptamer (see FIG. 7). IC50 values were determined by fitting the percent inhibition of vWF binding to platelets as a function of aptamer concentration to the equation: % inhibition=% inhibitionmax/(1+IC50/aptamer conc.)
# [5] = system: botrocetin induced platelet aggregation; test: Inhibition of botrocetin induced platelet aggregation (BIPA) in human PRP; type: cell-based; conditions: human platelet rich plasma
# In short: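 Fresh human platelet-rich plasma, prewarmed at 37 degrees C, was preincubated one minute with aptamer (zero, 1 nM to 1000 nM) before botrocetin at a per-donor titrated aggregating concentration. Aggregation was followed as light transmittance; the value is the concentration blocking aggregation by 90% or greater after 6 minutes.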
# Chain of rabbit vWF domain A1 binding to lyophilized platelets (as listed by the source): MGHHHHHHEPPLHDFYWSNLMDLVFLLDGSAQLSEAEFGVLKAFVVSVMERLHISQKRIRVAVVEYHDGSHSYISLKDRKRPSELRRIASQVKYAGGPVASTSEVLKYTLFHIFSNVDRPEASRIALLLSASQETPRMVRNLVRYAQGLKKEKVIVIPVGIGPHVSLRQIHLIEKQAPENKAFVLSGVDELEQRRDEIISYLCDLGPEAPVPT
Substance,% binding @ 100 nM vWF ([1]; Phase 4 and 5 modification),Kd ([1]; Phase 4 and 5 modification),T½ Human plasma,IC50 [2],T½ Rat plasma [3],IC50 [4],% binding @ 100 nM vWF ([1]; Phase 2 modification),Kd ([1]; Phase 2 modification),"binding to human vWF ([1]; in words, dot blot)",IC90 [5]
mCmGmGmCdCmG-s-TmGdCdGdGTmGmCdCmUdCdCmGmUmCmAmCPEGmGmUdGdCdAmGmUmGmCmCmG-3T (CGGCCGTGCGGTGCCUCCGUCACGUGCAGUGCCGT; chemistry not fully specified) [ARC1533],31.7%,0.004 µM,93 h,,,,,,,
"mGmCmGmUdGdCdAmGmUmGmCmCmUmUmCmGmGmCdCmGTmGdCdGdGTmGmCdCmUdCdCmGmUmCmAmCmGmC-3T (GCGUGCAGUGCCUUCGGCCGTGCGGTGCCUCCGUCACGC; sugars from the 5' end mmmmdddmmmmmmmmmmmdmdmddddmmdmddmmmmmmm, [invdT] at 3' end, backbone and methylation of C not given here) [ARC1346]",,,,0.05 µM,19 h,0.18 µM,51%,0.011 µM,the most potent,> 1000 nM
